The text below walks through data of the Bradley open melting point set (2014).

Broadly, the melting point is the temperature of the solid-liquid transition. As for `O=C(O)c1ccccc1` [Benzoic acid], the melting point stood at 122 °C. The figure for `CC(=O)N(C(C)=O)c1cc(/C=C/C(=O)O)ccc1/C=C/C(=O)O` is 313 °C; for `C/C=C/CC` [trans-2-pentene] it is -136 °C; for `CC(C)OB(OC(C)C)OC(C)C` [triisopropyl borate] it is -59 °C.

The compound `N#Cc1ccncc1` [4-cyanopyridine] yielded a melting point of 78 °C.

The compound `CC1COC(=O)O1` (centres undefined) [4-Methyl-1,3-dioxolan-2-one] displayed a melting point of -55 °C. To `Nc1cccnc1N` [2,3-diaminopyridine] belongs 112 °C; to `NC(=O)CI` [2-Iodoacetamide], 94 °C; to `C[C@]12CC[C@H]3[C@@H](CCC4=CC(=O)CC[C@@]43C)[C@@H]1CC[C@@H]2C(=O)CO` [deoxycorticosterone], 142 °C. To `Clc1nsnc1-c1cccnc1` [3-chloro-4-(3-pyridyl)-1,2,5-thiadiazole] belongs 56 °C; to `O=[N+]([O-])c1ccc(C2OCCO2)cc1` [4-nitrobenzaldehyde ethylene glycol acetal], 86 °C; to `CCOC(=O)CCC(C)C1CCC2C3C(O)C(Br)C4CC(OC(C)=O)CCC4(C)C3CC(OC(C)=O)C12C` (centres undefined) [ethyl 3,12-bis(acetyloxy)-6-bromo-7-hydroxycholan-24-oate], 166 °C. Turning to `O=C(O)c1cc(C(=O)O)c(C(=O)O)cc1C(=O)O` [Pyromellitic Acid], the melting point is 276 °C. The compound `COc1ccc(/C=C/c2ccccc2)cc1` [4-methoxystilbene] came in with a melting point of 137 °C. The figure for `Cc1ccc(C)c(C)c1C` [1,2,3,4-tetramethylbenzene] is -6 °C; for `CCCCCBr` [1-bromopentane] it is -88 °C; for `Ic1ccc(-c2ccccc2)cc1` [4-iodobiphenyl] it is 114 °C. To `CC(C)C1=C(O)C(=O)C2=C(C1=O)C(O)CC1C(C)(C)CCCC21C` (centres undefined) belongs 174 °C; to `[2H]c1c([2H])c2c([2H])c([2H])c3c([2H])c([2H])c([2H])c4c([2H])c([2H])c(c1[2H])c2c34` [(~2~H_10_)Pyrene], 156 °C; to `c1ccoc1` [furan], -85 °C. To `CC(C)(C)OC(=O)N[C@H](COCc1ccccc1)C(=O)O` [N-boc-o-benzyl-D-serine] belongs 62 °C; to `O=C(S)CCCC(=O)S` [methylenebis(thioacetic acid)], 128 °C.

The compound `Nc1ccccc1CO` [o-amino_benzyl_alcohol] displayed a melting point of 83 °C. To `COC(=O)c1ccc(O)cc1` [methyl_4-hydroxybenzoate] belongs 128 °C; to `Sc1nnc2ccccn12` [1,2,4-triazolo[4,3-a]pyridine-3-thiol], 210 °C. The figure for `CCCCCCC(=O)OCC` [ethyl_heptanoate] is -66 °C; for `CCOC(=O)c1cccc(C(=O)O)c1` [isophthalic acid, monoethyl ester] it is 109 °C; for `C=C(C)C(=O)OC(O)CC` (centres undefined) [1-Hydroxypropyl methacrylate] it is -58 °C. To `O=C(O)c1ccccc1Nc1cccc(C(F)(F)F)c1` [Flufenamic Acid] belongs 125 °C. For `OC(c1ccccc1)(c1ccccc1)c1ccccc1` [triphenylmethanol], the melting point worked out at 163 °C. In turn, `O=[N+]([O-])c1ccccc1CCl` [2-nitrobenzyl_chloride] registered a melting point of 48 °C.

Compound `CCOC(=O)c1ccc(N)cc1` [Benzocaine, Ethyl 4-aminobenzoate] gave a melting point of 90 °C. To `CCOc1ccc(N=C=S)cc1` [4-ethoxyphenyl isothiocyanate] belongs 59 °C.

With `Cc1sc2ccccc2c1CC1=NCCN1` [metizoline], the melting point was determined as 156 °C. The figure for `O=C(CCl)c1ccccc1` [2-Chloro-1-phenylethanone] is 55 °C; for `Fc1ccc(N2CCNCC2)cc1` [1-(4-fluorophenyl)piperazine] it is 32 °C; for `CCOCCOCCOCC` [1-Ethoxy-2-(2-ethoxyethoxy)ethane] it is -44 °C. The figure for `CCCCC[C@H](O)/C=C/[C@H]1[C@H](O)CC(=O)[C@@H]1C/C=C\CCCC(=O)O` [prostaglandin E2] is 67 °C. Turning to `CCCCCCCC/C=C\CCCCCCCCCCCC(N)=O` [(13Z)-Docos-13-enamide], the melting point worked out at 79 °C. To `CCOC(=O)c1ccccn1` [ethyl picolinate] belongs 2 °C. To `Cc1cc(NS(=O)(=O)c2ccc(N)cc2)nc(C)n1` [sulfisomidine] belongs 243 °C; to `CCO[SiH](OCC)OCC` [triethoxysilane], -170 °C; to `Cc1ccc(N)c(Cl)c1` [2-chloro-4-methylaniline], 7 °C. To `CCCS` [1-propanethiol] belongs -113 °C; to `C[C@H]1O[C@@H](O[C@H]2[C@@H](O)C[C@H](O[C@H]3[C@@H](O)C[C@H](O[C@H]4CC[C@@]5(C)[C@H](CC[C@@H]6[C@@H]5C[C@@H](O)[C@]5(C)C(C7=CC(=O)OC7)CC[C@]65O)C4)O[C@@H]3C)O[C@@H]2C)C[C@H](O)[C@@H]1O` (some centres undefined) [Digoxin], 249 °C. In the case of `COC(=O)c1ccccc1S(N)(=O)=O` [2-(methoxycarbonyl)benzenesulfonamide], the melting point is 124 °C.

`CC(=O)[C@H]1CC[C@H]2[C@@H]3CCC4=CC(=O)CC[C@]4(C)[C@H]3CC[C@]12C` [Progesterone] gave a melting point of 130 °C. The figure for `CCCCCCCCCCCCCCCCCCCCC` [N-heneicosane] is 41 °C. To `CCCCCCCCCCCCc1ccccc1` [Dodecylbenzene] belongs -7 °C; to `Nc1cc2ccccc2cc1N` [Naphthalene-2,3-diamine], 190 °C. To `Nc1ccc(C(F)(F)F)cc1Br` [2-bromo-4-(trifluoromethyl)aniline] belongs 30 °C.

Turning to `NCCCCCCN` [1,6-diaminohexane], the melting point was 41 °C.

`O=C(c1ccccc1)c1cccc(O)c1` [3-hydroxybenzophenone] gave a melting point of 114 °C. To `CCCc1ccc(C(=O)Oc2ccc(C#N)cc2)cc1` [4-cyanophenyl 4-n-propylbenzoate] belongs 102 °C; to `O=S(=O)(O)c1ccccc1` [Benzenesulfonic acid], 43.5 °C. The figure for `CON=C(/c1ccco1)C(=O)N[C@@H]3C(=O)N2C(=C(COC(N)=O)CS[C@@H]23)C(=O)O` [Cefuroxime] is 222 °C; for `O=C(CCCN1CCC(O)(c2ccc(Cl)cc2)CC1)c1ccc(F)cc1` [haloperidol] it is 148 °C. To `O=C=Nc1ccc(Cl)cc1Cl` [2,4-dichlorophenyl isocyanate] belongs 59 °C; to `OC1COC2C(O)COC12` (centres undefined) [1,4:3,6-dianhydrohexitol], 61 °C. With `OB(O)c1ccc(Br)cc1` [4-bromobenzeneboronic acid], the melting point is 284 °C. `COc1ccc(C(C)=O)cc1` [4'-methoxyacetophenone] gave a melting point of 38 °C.

Compound `CCCCC(C)CC` (centres undefined) [3-methylheptane] showed a melting point of -121 °C.

`Cc1cc(Cl)nc2ccccc12` [2-Chloro-4-methylquinoline] came in with a melting point of 56.9 °C. The figure for `Clc1ccccc1` [Chlorobenzene] is -45 °C. The figure for `O=C(O)CCCCCCCCCCCCCCCCCCC(=O)O` [1,18-octadecanedicarboxylic acid] is 127 °C; for `C1=CC=C/C=CC=C1` [1,3,5,7-cyclooctatetraene] it is -5 °C.

Compound `CC(=O)Nc1nc(O)c2ncn(COCCOC(C)=O)c2n1` [N,O-Diacetylacyclovir] had a melting point of 204 °C.

`ClC(Cl)(Cl)Cl` [tetrachloromethane] yielded a melting point of -23 °C. To `O=Cc1ccccc1C(=O)O` [2-carboxybenzaldehyde] belongs 99 °C. With `O=c1c2ccccc2sc2ccccc12` [thioxanthen-9-one], the melting point amounted to 212 °C. The figure for `OCCc1ccc(OCc2ccccc2)cc1` [2-(4-benzyloxyphenyl)ethanol] is 86 °C; for `CCOC(=O)/C(=N/Nc1cc(Cl)ccc1Cl)C(=O)C(F)(F)F` it is 147 °C; for `ClC1C(Cl)C(Cl)C(Cl)C(Cl)C1Cl` (centres undefined) [Lindane] it is 114 °C. The figure for `Nc1n[nH]c(-c2ccccc2)c1Br` [3-amino-4-bromo-5-phenyl-1h-pyrazole] is 114 °C; for `CC(Cc1ccccc1)NC(C#N)c1ccccc1` (centres undefined) [amphetaminil] it is 85 °C; for `CC[C@@H]1CCC[C@@H]1CC` [cis-1,2-diethylcyclopentane] it is -118 °C. To `CC(=O)c1ccccc1C(=O)O` [2-acetylbenzoic acid] belongs 117 °C; to `Cc1ccccc1Br` [2-bromotoluene], -27 °C; to `C#CC(C)(C)O` [2-methyl-3-butyn-2-ol], 3 °C. As for `CC(=O)Oc1ccccc1C(=O)O` [acetylsalicylicacid], the melting point amounted to 142 °C. The figure for `N#Cc1cccc(C#N)c1` [isophthalonitrile] is 161 °C. `C=CC(C)(C)C` [3,3-dimethyl-1-butene]: the melting point was -115 °C.

`Nc1nc(=O)c2ncn(COC(CO)CO)c2[nH]1` [Ganciclovir] registered a melting point of 250 °C.

As for `Cc1ccc(C)cc1` [p-xylene], the melting point is 13 °C.

Take `Cc1cccc(Br)c1` [3-bromotoluene]: the melting point is -40 °C. To `CC(=O)Nc1ccc(/C=C/c2ccc(NC(C)=O)cc2)cc1` [N,N'-[(E)-ethene-1,2-diyldibenzene-4,1-diyl]diacetamide] belongs 219 °C; to `CC(N)=S` [Ethanethioamide], 115 °C. Turning to `OB(O)c1cc(C(F)(F)F)ccc1F` [2-fluoro-5-(trifluoromethyl)benzeneboronic acid], the melting point is 107 °C. Consider `CCCN` [1-propylamine], for which the melting point is -83 °C.
